Like-named read-outs stand apart in the source and are kept apart here.
Experiments:
[1] = test system: Transgenic plants containing the three gene construct (oxygenase, ferredoxin and reductase genes)
wild type tobacco plants = settings: for effect on non-transgenic plants: sprayed
[2] = test system: Transgenic tobacco plants bearing oxygenase gene constructs but lacking the transit peptide coding sequence; settings: sprayed, 0.5 lbs/acre to 5 lbs/acre tested
[3] = test system: transgenic tobacco plants bearing the oxygenase gene constructs with the transit peptide; settings: 0.5 lbs/acre to 5 lbs/acre tested

## COc1c(Cl)ccc(Cl)c1C(=O)O [dicamba, 2-methoxy-3,6-dichlorobenzoic acid]
[1]; 0.125 Ib/acre dicamba, sprayed
  effect on transgenic plants: grew and were healthy
[1]; predicted from plants with the oxygenase construct alone
  predicted resistance to dicamba: ≥ 2.5 Ib/acre
Wild type tobacco plants; 0.125 Ib/acre dicamba
  effect on non-transgenic plants: reduced growth, withering and severe necrosis
Wild type tobacco plants; 0.5 lbs/acre of dicamba, sprayed at 10-12-leaf stage with non-ionic surfactant
  sensitivity of the wild type plants: 100%
Wild type tobacco plants; same amounts of dicamba as the transgenic plants (0.5 lbs/acre to 5 lbs/acre)
  effect on non-transgenic plants: reduced growth, withering and severe necrosis
[2]
  dicamba treatment to which plants displayed resistance (grew and were healthy): at least 2.5 lbs/acre
[3]
  concentration of dicamba at which sprayed plants grew and were healthy: up to 5 lbs/acre
